Tests used:
Histamine H1 receptor = Histamine H1 receptor (Homo sapiens, UniProt P35367); assay: Binding affinity towards Histamine H1 receptor of human membranes.
Histamine H3 receptor [1] = molecular target: Histamine H3 receptor (Rattus norvegicus, UniProt Q9QYN8); assay: Binding affinity towards Histamine H3 receptor of rat cortical membranes.
Histamine H2 receptor = Histamine H2 receptor (Homo sapiens, UniProt P25021); assay: Binding affinity towards Histamine H2 receptor from human membranes
[2] = Oral bioavailability in rat (dose 5 mg/kg p.o.); format: ADME, organism-based; conditions: in vivo
[3] = molecular target: Histamine H3 receptor (Rattus norvegicus) (UniProt Q9QYN8); assay: In vitro histamine H3 receptor antagonist activity was determined by K+-evoked depolarization- induced release of [3H]histamine from rat synaptosomes; format: functional, subcellular; conditions: Brain
Histamine H3 receptor [4] = molecular target: Histamine H3 receptor (Cavia porcellus, UniProt Q9JI35); assay: Tested in vitro for histamine H3 receptor mediate inhibition of neurogenic contractions in guinea pig isolated ileum assay; format: functional, tissue-based; conditions: read-out: pA2 (converted)
Sequence of Histamine H3 receptor (Cavia porcellus, UniProt Q9JI35) (Q9JI35 whole entry): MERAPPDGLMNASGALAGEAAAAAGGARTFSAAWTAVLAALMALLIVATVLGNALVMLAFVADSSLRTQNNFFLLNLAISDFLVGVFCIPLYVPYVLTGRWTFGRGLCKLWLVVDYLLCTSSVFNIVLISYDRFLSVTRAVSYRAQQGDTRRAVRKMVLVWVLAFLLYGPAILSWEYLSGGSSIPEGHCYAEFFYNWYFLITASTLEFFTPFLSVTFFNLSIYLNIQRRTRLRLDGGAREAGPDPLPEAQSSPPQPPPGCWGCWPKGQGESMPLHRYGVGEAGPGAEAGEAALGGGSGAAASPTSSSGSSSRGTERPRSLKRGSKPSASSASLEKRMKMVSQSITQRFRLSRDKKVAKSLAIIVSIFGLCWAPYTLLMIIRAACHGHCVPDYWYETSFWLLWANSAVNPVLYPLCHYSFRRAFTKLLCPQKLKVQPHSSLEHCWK

Sequence of Histamine H3 receptor (Rattus norvegicus, UniProt Q9QYN8) (Q9QYN8 whole entry): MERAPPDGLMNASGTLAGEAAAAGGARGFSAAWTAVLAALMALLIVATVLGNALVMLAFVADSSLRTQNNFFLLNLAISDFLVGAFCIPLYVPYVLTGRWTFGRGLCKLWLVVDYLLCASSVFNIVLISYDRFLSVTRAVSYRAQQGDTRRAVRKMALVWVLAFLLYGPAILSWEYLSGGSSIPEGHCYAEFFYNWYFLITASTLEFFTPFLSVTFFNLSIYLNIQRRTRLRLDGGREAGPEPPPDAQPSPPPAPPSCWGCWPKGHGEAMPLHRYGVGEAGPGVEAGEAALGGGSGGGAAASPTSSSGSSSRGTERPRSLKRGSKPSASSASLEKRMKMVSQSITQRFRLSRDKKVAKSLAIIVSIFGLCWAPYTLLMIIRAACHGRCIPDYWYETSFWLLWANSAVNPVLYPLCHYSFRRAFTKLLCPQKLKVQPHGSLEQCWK
Sequence of Histamine H1 receptor (P35367 whole entry): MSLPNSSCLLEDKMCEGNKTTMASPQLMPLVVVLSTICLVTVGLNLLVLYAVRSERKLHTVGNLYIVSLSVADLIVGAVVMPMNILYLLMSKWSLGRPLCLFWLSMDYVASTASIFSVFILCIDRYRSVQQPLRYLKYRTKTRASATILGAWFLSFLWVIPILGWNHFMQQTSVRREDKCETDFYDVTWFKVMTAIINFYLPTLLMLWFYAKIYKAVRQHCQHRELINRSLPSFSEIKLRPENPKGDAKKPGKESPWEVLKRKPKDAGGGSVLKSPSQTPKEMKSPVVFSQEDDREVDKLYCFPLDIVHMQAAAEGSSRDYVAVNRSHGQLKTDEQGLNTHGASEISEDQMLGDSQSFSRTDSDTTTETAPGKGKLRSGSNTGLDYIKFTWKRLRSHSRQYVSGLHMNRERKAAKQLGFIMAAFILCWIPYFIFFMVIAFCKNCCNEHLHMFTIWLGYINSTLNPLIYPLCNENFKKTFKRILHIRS
Sequence of Histamine H2 receptor (P25021 whole entry): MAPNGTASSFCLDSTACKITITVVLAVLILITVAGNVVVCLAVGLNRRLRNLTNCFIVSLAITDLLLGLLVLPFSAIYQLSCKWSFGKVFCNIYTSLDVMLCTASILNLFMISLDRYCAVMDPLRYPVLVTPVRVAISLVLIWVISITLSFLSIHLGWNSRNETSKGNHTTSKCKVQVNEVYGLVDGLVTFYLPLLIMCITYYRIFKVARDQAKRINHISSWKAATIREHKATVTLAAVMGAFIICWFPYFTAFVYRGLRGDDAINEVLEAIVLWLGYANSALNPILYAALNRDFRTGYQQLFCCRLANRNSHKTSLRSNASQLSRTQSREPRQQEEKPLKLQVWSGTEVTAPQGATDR
Sequence of Histamine H3 receptor (Rattus norvegicus) (Q9QYN8 whole entry): as the sequence (Q9QYN8 whole entry) above

Ki (Histamine H1 receptor)	Ki (Histamine H3 receptor [1])	Ki (Histamine H2 receptor)	bioavailability [2]	pKb [3]	Kb (Histamine H3 receptor [4])	Compound
4.68 µM	0.0145 µM	4.47 µM				CCCCCC(=O)c1ccc(OCCCN2CCN(C(=O)[C@@H](CC(C)C)NC(=O)OC(C)(C)C)CC2)cc1
34.7 µM	0.0759 µM	49 µM				CN[C@@H](C(=O)N1CCN(CCCOc2ccc(C(=O)C3CC3)cc2)CC1)C(C)C
10.7 µM	0.0977 µM	12.6 µM				CCCCCC(=O)c1ccc(OCCCN2CCN(C(=O)[C@@H](NC(=O)OC(C)(C)C)C(C)C)CC2)cc1
13.5 µM	0.0437 µM	17.8 µM				CN[C@H](Cc1ccccc1)C(=O)N1CCN(CCCOc2ccc(C(=O)C3CC3)cc2)CC1
16.2 µM	0.00851 µM	45.7 µM				CC(C)(C)OC[C@@H](N)C(=O)N1CCN(CCCOc2ccc(C(=O)C3CC3)cc2)CC1
12.6 µM	0.00132 µM	14.1 µM				O=C(c1ccc(OCCCN2CCN(C(=O)[C@H]3CCN3)CC2)cc1)C1CC1
5.5 µM	0.00398 µM	10 µM				CC(C)(C)OC(=O)N[C@H](Cc1ccccc1)C(=O)N1CCN(CCCOc2ccc(C(=O)C3CC3)cc2)CC1
12 µM	0.132 µM	20.4 µM				N[C@H](Cc1ccc(-c2ccccc2)cc1)C(=O)N1CCN(CCCOc2ccc(C(=O)C3CC3)cc2)CC1
35.5 µM	0.00191 µM	40.7 µM				CCCCCC(=O)c1ccc(OCCCN2CCN(C(=O)[C@@H](C)N)CC2)cc1
9.33 µM	0.0537 µM	14.8 µM				CCCCCC(=O)c1ccc(OCCCN2CCN(C(=O)[C@H](Cc3ccncc3)NC(=O)OC(C)(C)C)CC2)cc1
69.2 µM	0.00126 µM	70.8 µM	83%	8.75	0.105 µM	C[C@@H](N)C(=O)N1CCN(CCCOc2ccc(C(=O)C3CC3)cc2)CC1
8.13 µM	0.112 µM	3.47 µM				CCCCCC(=O)c1ccc(OCCCN2CCN(C(=O)[C@H](CC(C)C)NC(=O)OC(C)(C)C)CC2)cc1
70.8 µM	0.00158 µM	100 µM				CC[C@@H](N)C(=O)N1CCN(CCCOc2ccc(C(=O)C3CC3)cc2)CC1 (stereo in doubt; 43)
			0%			CCCCCC(=O)c1ccc(OCCCN2CCN(C(=O)OCC)CC2)cc1
53.7 µM	0.0204 µM	41.7 µM				C[C@H](N)C(=O)N1CCN(CCCOc2ccc(C(=O)C3CC3)cc2)CC1
17 µM	0.0024 µM	22.9 µM				CCCCCC(=O)c1ccc(OCCCN2CCN(C(=O)[C@@H](CO)NC(=O)OC(C)(C)C)CC2)cc1
21.9 µM	0.0525 µM	19.1 µM				CC(C)(C)[C@@H](N)C(=O)N1CCN(CCCOc2ccc(C(=O)C3CC3)cc2)CC1
9.77 µM	0.0229 µM	46.8 µM				N[C@H](Cc1ccsc1)C(=O)N1CCN(CCCOc2ccc(C(=O)C3CC3)cc2)CC1
9.33 µM	0.0295 µM	39.8 µM				N[C@H](Cc1ccc(F)cc1)C(=O)N1CCN(CCCOc2ccc(C(=O)C3CC3)cc2)CC1
17 µM	0.0234 µM	12 µM				CCCCCC(=O)c1ccc(OCCCN2CCN(C(=O)[C@@H](Cc3ccncc3)NC(=O)OC(C)(C)C)CC2)cc1
1.74 µM	0.00891 µM	10.7 µM				C[C@H](CN)C(=O)N1CCN(CCCOc2ccc(C(=O)C3CC3)cc2)CC1
6.76 µM	0.00123 µM	10.7 µM				CCCCCC(=O)c1ccc(OCCCN2CCN(C(=O)[C@@H](C)NC(=O)OC(C)(C)C)CC2)cc1
95.5 µM		89.1 µM				O=C(c1ccc(OCCCN2CCN(C(=O)C[C@H]3CCCN3)CC2)cc1)C1CC1
45.7 µM	0.0288 µM	72.4 µM				N#CC[C@@H](N)C(=O)N1CCN(CCCOc2ccc(C(=O)C3CC3)cc2)CC1
4.37 µM	0.288 µM	15.1 µM				N[C@H](Cc1cc2ccccc2s1)C(=O)N1CCN(CCCOc2ccc(C(=O)C3CC3)cc2)CC1
95.5 µM	0.00457 µM	89.1 µM				N[C@H](Cc1c[nH]cn1)C(=O)N1CCN(CCCOc2ccc(C(=O)C3CC3)cc2)CC1
46.8 µM	0.12 µM	50.1 µM				CC(C)(C)OC(=O)N1CCC[C@@H]1C(=O)N1CCN(CCCOc2ccc(C(=O)C3CC3)cc2)CC1
10.7 µM	0.0263 µM	19.1 µM				N[C@@H](C(=O)N1CCN(CCCOc2ccc(C(=O)C3CC3)cc2)CC1)C1Cc2ccccc2C1

Ki (Histamine H1 receptor)	Ki (Histamine H3 receptor [1])	Ki (Histamine H2 receptor)	bioavailability [2]	pKb [3]	Kb (Histamine H3 receptor [4])	Compound
9.77 µM	0.17 µM	16.6 µM				CCCCCC(=O)c1ccc(OCCCN2CCN(C(=O)[C@@H](N)CC(C)C)CC2)cc1
14.5 µM	0.162 µM	20.4 µM				N[C@H](CC1CCCCC1)C(=O)N1CCN(CCCOc2ccc(C(=O)C3CC3)cc2)CC1
3.31 µM	0.00912 µM	37.2 µM				CCCCCC(=O)c1ccc(OCCCN2CCN(C(=O)[C@H](N)Cc3ccncc3)CC2)cc1
21.9 µM	0.0427 µM	26.9 µM				O=C1C[C@H](N2CCN(CCCOc3ccc(C(=O)C4CC4)cc3)CC2)N1
28.2 µM	0.000501 µM	100 µM	46%			NCCC(=O)N1CCN(CCCOc2ccc(C(=O)C3CC3)cc2)CC1
2.29 µM	0.0102 µM	34.7 µM				CCCCCC(=O)c1ccc(OCCCN2CCN(C(=O)[C@@H](N)Cc3ccncc3)CC2)cc1
2 µM	0.214 µM	20.9 µM				N[C@H](Cc1cccc2ccccc12)C(=O)N1CCN(CCCOc2ccc(C(=O)C3CC3)cc2)CC1
4.68 µM	0.00251 µM	10.7 µM				CC[C@H](N)C(=O)N1CCN(CCCOc2ccc(C(=O)C3CC3)cc2)CC1
10 µM	0.0129 µM	12.3 µM				O=C(c1ccc(OCCCN2CCN(C(=O)[C@@H]3CCN3)CC2)cc1)C1CC1
100 µM	0.00575 µM	97.7 µM				N[C@H](Cc1nccs1)C(=O)N1CCN(CCCOc2ccc(C(=O)C3CC3)cc2)CC1
2.09 µM	0.00195 µM	11 µM				CC[C@@H](N)C(=O)N1CCN(CCCOc2ccc(C(=O)C3CC3)cc2)CC1 (stereo in doubt; 57)
10.2 µM						CC(C)(C)C[C@@H](N)C(=O)N1CCN(CCCOc2ccc(C(=O)C3CC3)cc2)CC1
8.13 µM		83.2 µM				C[C@@H](NC(=O)OC(C)(C)C)C(=O)N1CCN(CCCOc2ccc(C(=O)C3CC3)cc2)CC1
4.57 µM	0.0275 µM	24.5 µM				N[C@@H](C(=O)N1CCN(CCCOc2ccc(C(=O)C3CC3)cc2)CC1)c1ccccc1
9.77 µM	0.0302 µM	33.1 µM				N[C@H](Cc1ccc(O)cc1)C(=O)N1CCN(CCCOc2ccc(C(=O)C3CC3)cc2)CC1
46.8 µM	0.00398 µM	60.3 µM				CCC[C@@H](N)C(=O)N1CCN(CCCOc2ccc(C(=O)C3CC3)cc2)CC1
46.8 µM	0.00708 µM	34.7 µM				CCCCCC(=O)c1ccc(OCCCN2CCN(C(=O)[C@H](N)CO)CC2)cc1
46.8 µM	0.00871 µM	50.1 µM				CC(C)N[C@H](C)C(=O)N1CCN(CCCOc2ccc(C(=O)C3CC3)cc2)CC1
37.2 µM	0.0302 µM	53.7 µM				O=C(c1ccc(OCCCN2CCN(C(=O)[C@H]3CCCN3)CC2)cc1)C1CC1
10 µM	0.00457 µM	10 µM				N[C@H](CCc1ccccc1)C(=O)N1CCN(CCCOc2ccc(C(=O)C3CC3)cc2)CC1
14.5 µM	0.0617 µM	14.1 µM				CCCCCC(=O)c1ccc(OCCCN2CCN(C(=O)[C@H](N)CC(C)C)CC2)cc1
16.6 µM	0.017 µM	31.6 µM				CCCCCC(=O)c1ccc(OCCCN2CCN(C(=O)[C@H](N)C(C)C)CC2)cc1
1.51 µM	0.00646 µM	10.2 µM				C[C@@H](CN)C(=O)N1CCN(CCCOc2ccc(C(=O)C3CC3)cc2)CC1
3.31 µM	0.0148 µM	13.5 µM				CCCCCC(=O)c1ccc(OCCCN2CCN(C(=O)[C@H](NC(=O)OC(C)(C)C)C(C)C)CC2)cc1
10 µM	0.00437 µM	10 µM				O=C1C[C@@H](N2CCN(CCCOc3ccc(C(=O)C4CC4)cc3)CC2)N1
19.1 µM	0.0794 µM	38 µM				CCCCCC(=O)c1ccc(OCCCN2CCN(C(=O)[C@@H](N)C(C)C)CC2)cc1
100 µM	0.00229 µM	79.4 µM				CNCC(=O)N1CCN(CCCOc2ccc(C(=O)C3CC3)cc2)CC1
